Results reported in patent publication US20230382851A1, “GAMMA-HYDRO[…] AND PROCESSES FOR MAKING AND USING THEM” (Zevra Therapeutics, Inc., priority 2022, published 2023).

Assay: Pharmacokinetics of GHB in plasma after oral gavage of GHB delivering compounds; relative oral bioavailability vs sodium oxybate
Conditions: vehicle water
[1] = molar equivalent of 100 mg/kg NaGHB
[2] = dose equivalent to 80 mg/kg NaGHB

SMILES	% AUC0-4 hr vs study comparator (sodium oxybate) [1] [%]	% Cmax vs study comparator (sodium oxybate) [1] [%]	% AUC0-4 hr vs study comparator (sodium oxybate) [2] [%]	% Cmax vs study comparator (sodium oxybate) [2] [%]
O=C1CCCO1 [GBL]	27	70	–	–
CCOC(=O)OCCCC(=O)O [O-(ethoxycarbonyl)-GHB, O-(Ethoxycarbonyl)-GHB]	–	–	54	51
